Results from article PMC10896213, “Identification of the KIF18A alpha-4 helix as a therapeutic target for chromosomally unstable tumor cells” (Frontiers in Molecular Biosciences, 2023).

Target: T1, KIF18A (Homo sapiens, UniProt Q8NI77)
T1 construct: KIF18A (1−417); with pig microtubules (tubulin)
T1 sequence (Q8NI77 1-417): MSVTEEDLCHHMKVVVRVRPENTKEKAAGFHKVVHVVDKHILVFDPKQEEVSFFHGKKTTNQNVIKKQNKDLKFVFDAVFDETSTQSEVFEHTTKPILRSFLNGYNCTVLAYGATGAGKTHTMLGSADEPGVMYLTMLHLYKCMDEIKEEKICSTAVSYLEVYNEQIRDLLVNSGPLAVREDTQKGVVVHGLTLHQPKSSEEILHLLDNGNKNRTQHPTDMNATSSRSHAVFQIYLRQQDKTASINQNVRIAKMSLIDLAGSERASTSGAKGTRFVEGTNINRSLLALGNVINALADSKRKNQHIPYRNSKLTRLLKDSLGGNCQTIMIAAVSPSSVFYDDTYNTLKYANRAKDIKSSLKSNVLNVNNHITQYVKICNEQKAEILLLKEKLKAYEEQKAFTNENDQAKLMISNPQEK
Assay: microtubule-stimulated ATPase assay (ADP-Glo)
Type: biochemical

IC50: 8.2 nM
SMILES: Cc1cc(NC(=O)c2cnc(NS(=O)(=O)CCO)cc2N2CCC3(CC2)CC3)nc(N2CCC(F)(F)CC2)n1 [Compound 3]
